Experimental data as given in patent US11942223B1, “Systems and methods for rapid gene set enrichment analysis” (Immuneering Corporation, priority 2018, dated 2024).

Assays:
MDA-MB-231 cells [1] = assay: Transwell ECM-based invasion assay, MDA-MB-231; assay type: cell-based, human; details: for inhibition of tumor cell invasion: MDA-MB-231, three GSK3 inhibitors, FIG. 7B
Procedure: To experimentally test the in silico predictions made by Cosiner™ and to pursue an inhibitor of metastasis, an in vitro ECM-based invasion assay was performed. An invasion assay is an in vitro proxy for the process of cells migrating and breaking through the extracellular matrix as would occur in the body during metastasis. All three GSK3A/GSK3B inhibitors tested were effective at inhibiting the invasion of the human triple negative breast cancer cell model MDA-MB-231 cells (FIG. 7B). […] Cell viability was determined at 10 μM by CellTiter-Glo® (CTG). […] At 10 μM doses, off-target effects can confound pharmacologic interpretations not to mention that it is unlikely to be a physiologically feasible dose for mice or humans. The viability at for each of the line as tested with each of these drugs was 76.4% for CHIR-99021 and 80.5% for 6-BIO 10 μM of drug by CTG.
(§1) Culture medium was removed when cells reached 80% confluence. Cultures were gently rinsed with PBS to remove all the remaining serum. Serum-free medium was added to the cultures and they were incubated overnight at 37° C. 5% CO2.
(§2) 786-O. NCI-H460, NCI-H226, MDA-MB-231 and DU-145 cells were tested in transwells with 3 μm pores. HCT-116, PC-3, MDA-MB-453 and COLO-205 cells were tested in transwells with 8 μm pores.
(§3) First, the Matrigel® was thawed in an ice bath in a refrigerator (4° C.) overnight. Matrigel® was then diluted into serum-free, cold cell culture media (1:8 dilution). 20 μL of diluted Matrigel®) was added into each well of BD Falcon™ Multiwell 96-well cell culture inserts. Transwell inserts were incubated at 37° C., for at least 4 to 5 hours for gelling. Before use, the transwells were rehydrated by adding 100 μL PBS to the insert and incubated at 37° C., in ambient air for 2 hours.
Cells were harvested using Trypsin and washed once with serum free medium. Cells were resuspended with serum-free medium. The 786-O cell density was adjusted to 2×10^5 cells/mL; the NCI-H460 and NCI-H226 cell density was adjusted to 5×10^6 cells/mL; the MDA-MB-231 and DU-145 cell density was adjusted to 1×10^6 cells/mL; the HCT-116 cell density was adjusted to 5×10^6 cells/mL; the PC-3 cell density to 1×10^6 cell/mL; the MDA-MB-453 cell density was adjusted to 5×10^5 cells/mL; and the COLO-205 cell density was adjusted to 2×10^6 cells/mL.
Cells were pre-treated with compounds, which were dissolved in DMSO and diluted to the desired concentration in culture medium. The pretreatment was performed in Ultra-low attachment multiwell plates. 90 μL cells and 10 μL compound solution were mixed in each well of the plate. The plate was covered with a lid and incubated for 60 minutes. 50 μL of cells was seeded onto each top insert, which was pre-coated with 1:8 diluted Matrigel®. 180 μL of warm (37° C.) culture medium containing 10% FBS was added to the lower chamber of the transwell plate. 200 μL serum-free medium and 20 μL of compound dilution was added to the indicated lower chamber as the negative control. The 96-Multiwell Insert system was transferred to the incubator for 16 hours at 37° C., and 5% CO2. Next, the insert was transferred to a new plate. The lower chambers were centrifuged at 3000 rpm for 5 minutes and then washed twice with PBS.
The insert was transferred back to the lower chamber and 200 μL of the DiTC12(3) fluorescent dye solution was added. The final concentration of DiIC12(3) was 5 μg/mL. Plates were incubated for 30 minutes at 37° C., and 5% CO2. The plates were then washed with PBS twice. The invaded/migrated cells were monitored by reading fluorescence at 530/590 nm on a PerkinElmer EnSpire™ plate reader.
Percent inhibition for compound was calculated using Formula 6.
The positive control was DMSO treated and had medium with 10% FBS (average of 3 wells per cell line) in receiver well. The negative control was DMSO treated with no FBS in the receiver well (average of 3 wells per cell line). […]

MDA-MB-231 cells [2] = assay: CellTiter-Glo viability, MDA-MB-231; assay type: cell-based, human; details: MDA-MB-231, 10 μM of drug
Procedure: (§4) Viability was determined at the maximum drug concentration measured in a given experiment via CellTiter-Glo® (CTG) per manufacturers recommendations: https://www.promega.com/-/media/files/resources/protocols/technical-bulletins/0/celltiter-glo-luminescent-cell-viability-assay-protocol.pdf?la=en.

[3] = CellTiter-Glo viability, MDA-MB-231; assay type: cell-based, human; details: human, MDA-MB-231 cells; for viability at 10 µM: MDA-MB-231, 10 μM of drug
Procedure: as §4

[4] = CellTiter-Glo viability, 786-O; assay type: cell-based; details: human, 786-O cells, 600 nM, assay threshold 80%, read-out: cell viability by CellTiter-Glo
Procedure: as §4

[5] = tested on: DU-145 (prostate cancer) cells; assay: Transwell invasion assay, DU-145; assay type: cell-based; details: DU-145, cell line panel, FIG. 9A
Procedure: as §1, §2, §3
(§5) Cells were harvested using Trypsin and washed once with serum free medium. Cells were resuspended with serum-free medium. […]
(§6) The insert was transferred back to the lower chamber and 200 μL of the DiTC12(3) fluorescent dye solution was added. […] The invaded/migrated cells were monitored by reading fluorescence at 530/590 nm on a PerkinElmer EnSpire™ plate reader.
(§7) Percent inhibition for compound was calculated using Formula 6. […]

[6] = CellTiter-Glo viability, MDA-MB-453; assay type: cell-based; details: human, MDA-MB-453 cells; MDA-MB-453, 600 nM; read-out: cell viability by CellTiter-Glo
Procedure: as §4

[7] = tested on: COLO-205 (colon cancer) cells; assay: Transwell invasion assay, COLO-205; assay type: cell-based; details: COLO-205, cell line panel, FIG. 9B
Procedure: as §1, §2, §3, §5, §6, §7

[8] = tested on: 786-O (renal cancer) cells; assay: Transwell invasion assay, 786-O; assay type: cell-based; details: cell line panel, FIG. 9A
Procedure: as §1, §2, §3, §5, §6, §7

[9] = tested on: MDA-MB-453 (breast cancer) cells; assay: Transwell invasion assay, MDA-MB-453; assay type: cell-based; details: MDA-MB-453, cell line panel, FIG. 9B; low baseline invasiveness
Procedure: as §1, §2, §3, §5, §6, §7

[10] = CellTiter-Glo viability, PC-3; assay type: cell-based; details: human, PC-3 cells; PC3, 600 nM; read-out: cell viability by CellTiter-Glo
Procedure: as §4

[11] = tested on: PC-3 (prostate cancer) cells; assay: Transwell invasion assay, PC-3; assay type: cell-based; details: PC-3, cell line panel, FIG. 9A
Procedure: as §1, §2, §3, §5, §6, §7

[12] = CellTiter-Glo viability, DU-145; assay type: cell-based; details: human, DU-145 cells; DU-145, 600 nM; read-out: cell viability by CellTiter-Glo
Procedure: as §4

A549 (lung cancer) cells = assay: Transwell invasion assay, A549; assay type: cell-based; details: A549, previous experiment, FIG. 9B
Procedure: as §1, §3
Cells were pre-treated with compounds, which were dissolved in DMSO and diluted to the desired concentration in culture medium. The pretreatment was performed in Ultra-low attachment multiwell plates. 90 μL cells and 10 μL compound solution were mixed in each well of the plate. The plate was covered with a lid and incubated for 60 minutes. […]
as §6, §7

[13] = CellTiter-Glo viability, NCI-H226; assay type: cell-based; details: human, NCI-H226 cells; NCI-H226, 600 nM; read-out: cell viability by CellTiter-Glo
Procedure: as §4

[14] = tested on: NCI-H226 (lung cancer) cells; assay: Transwell invasion assay, NCI-H226; assay type: cell-based; details: NCI-H226, cell line panel, FIG. 9A
Procedure: as §1, §2, §3, §5, §6, §7

[15] = CellTiter-Glo viability, HCT-116; assay type: cell-based; details: human, HCT-116 cells; HCT-166 (so in the source), 600 nM; read-out: cell viability by CellTiter-Glo
Procedure: as §4

[16] = CellTiter-Glo viability, NCI-H460; assay type: cell-based; details: human, NCI-H460 cells; NCI-H460, 600 nM; read-out: cell viability by CellTiter-Glo
Procedure: as §4

[17] = CellTiter-Glo viability, COLO-205; assay type: cell-based; details: human, COLO-205 cells; COLO-205, 600 nM; read-out: cell viability by CellTiter-Glo
Procedure: as §4

[18] = tested on: HCT-116 (colon cancer) cells; assay: Transwell invasion assay, HCT-116; assay type: cell-based; details: HCT-116, cell line panel, FIG. 9B; low baseline invasiveness
Procedure: as §1, §2, §3, §5, §6, §7

[19] = tested on: NCI-H460 (lung cancer) cells; assay: Transwell invasion assay, NCI-H460; assay type: cell-based; details: NCI-H460, cell line panel, FIG. 9A
Procedure: as §1, §2, §3, §5, §6, §7

[20] = CellTiter-Glo viability, A549; assay type: cell-based; details: human, A549 cells; A549, 600 nM; read-out: cell viability by CellTiter-Glo
Procedure: as §4

[21] = read-out: cell viability by CellTiter-Glo

Question: Which results are given for O=C1Nc2cc(Br)ccc2/C1=C1/Nc2ccccc2/C1=N\O [6-BIO]?
Answer: inhibition of tumor cell invasion (MDA-MB-231 cells [1]): inhibited tumor cell invasion but only at the higher dose levels tested (e.g., 1-10 μM); cell viability by CellTiter-Glo (MDA-MB-231 cells [2]): 80.5%

Question: With Cc1c[nH]c(-c2cnc(NCCNc3ccc(C#N)cn3)nc2-c2ccc(Cl)cc2Cl)n1 [CHIR-99021] as the compound, how does the “inhibition of tumor cell invasion” value (MDA-MB-231 cells [1]) read?
Answer: inhibited tumor cell invasion but only at the higher dose levels tested (e.g., 1-10 μM)

Question: And the viability at 10 µM [3, 21]?
Answer: 76.4%

Question: For O=C1NC(=O)C(c2cnc3ccccn23)=C1c1cn2c3c(cc(F)cc13)CN(C(=O)N1CCCCC1)CC2 [LY-2090314], which viability at 0.6 µM [4] is on record?
Answer: 83%

Question: And the inhibition of invasion [5]?
Answer: markedly inhibited

Question: And the viability at 0.6 µM [6]?
Answer: ~100%

Question: And the inhibition of invasion [7]?
Answer: did not significantly inhibit

Question: And the inhibition of invasion [8]?
Answer: markedly inhibited

Question: What about the IC50 (MDA-MB-231 cells [1]; Homo sapiens, MDA-MB-231, dose response FIG. 8, average of 6 wells, read-out: 50% inhibition of baseline invasion) of the same compound?
Answer: ~5 nM

Question: And the inhibition of invasion (MDA-MB-231 cells [1]; MDA-MB-231, cell line panel, FIG. 9A, average of 6 wells)?
Answer: markedly inhibited

Question: And the “dose of maximal inhibition of tumor cell invasion” value (MDA-MB-231 cells [1]; MDA-MB-231, dose response FIG. 8, average of 6 wells)?
Answer: approximately 24 nM

Question: And the “inhibition of tumor cell invasion” value (MDA-MB-231 cells [1])?
Answer: inhibited tumor cell invasion at all concentrations tested

Question: And the inhibition of invasion [9]?
Answer: did not significantly inhibit

Question: And the viability at 0.6 µM [10]?
Answer: ~100%

Question: And the inhibition of invasion [11]?
Answer: markedly inhibited

Question: What about the viability at 0.6 µM [12] of the same compound?
Answer: ~100%

Question: And the inhibition of invasion (A549 (lung cancer) cells)?
Answer: did not significantly inhibit

Question: And the viability at 0.6 µM [13]?
Answer: ~100%

Question: What about the viability at 0.6 µM ([3]; MDA-MB-231, 600 nM of drug, dose response experiment (FIG. 8), read-out: cell viability by CellTiter-Glo) of the same compound?
Answer: 93.5%

Question: And the viability at 0.6 µM ([3]; MDA-MB-231, 600 nM, cell line panel experiment (FIG. 9A))?
Answer: 95.5%

Question: And the viability at 10 µM [3, 21]?
Answer: ~100%

Question: What about the inhibition of invasion [14] of the same compound?
Answer: markedly inhibited

Question: What about the viability at 0.6 µM [15] of the same compound?
Answer: ~97.7%

Question: And the viability at 0.6 µM [16]?
Answer: ~100%

Question: What about the viability at 0.6 µM [17] of the same compound?
Answer: ~100%

Question: What about the inhibition of invasion [18] of the same compound?
Answer: did not significantly inhibit

Question: And the inhibition of invasion [19]?
Answer: markedly inhibited

Question: And the viability at 0.6 µM [20]?
Answer: 99.3%
